The record followed here is publication PMC9741109, “Synthesis, In Silico and In Vivo Toxicity Assessment of Functionalized Pyridophenanthridinones via Sequential MW-Assisted Intramolecular Friedel-Crafts Alkylation and Direct C–H Arylation” (Molecules, 2022).

What is called LC50 is the concentration that kills 50% of the test population. Read a high LC50 as a less lethal substance.

The nature of data set [1]: in vivo. The following applies: wild-type, zebrafish (Danio rerio), in vivo. An excerpt: (§1) The Zebrafish (Danio rerio) has been established as a modern experimental vertebrate model for assessing the toxicity of diverse synthetic and natural small molecules (SMs). […] Thus, these previously reported methodologies were adapted in our laboratory with slight modifications for the toxicological assessment of the selected pyridophenanthridin-6-one 4f and its corresponding precursors 6f–8f (Table 2).
(§2) Wild-type adult zebrafish of both sexes were separated in two tanks (30 L each), according to their gender, at 26 ± 2 °C under natural light-dark photoperiods. Fishes were fed twice daily, and the water quality was recorded weekly, in order to acclimate the fishes for at least two weeks before experiments begin. For the reproduction of the adult fishes, small breeding tanks were set up in the evening previous to the experiment, each containing three males and one female specimen. The tanks were isolated until the next morning when the lights switched on and the natural mating occurred, without any perturbation.
(§3) The adult fishes were returned to their corresponding tank and the embryos were collected, pooled, and washed with E3 medium and transferred into a 92 mm glass Petri dish. Further, the dead, delayed, malformed, and unfertilized embryos were identified under a dissecting microscope and removed by select aspiration with a pipette. This last procedure was repeated at 12 and 20 hpf in order to remove the unfit embryos. Throughout this period of time, the embryos were kept at 28 ± 2 °C in an incubator under natural light–dark photoperiods. The selected embryos of 24 hpf from the Petri dish were gently distributed into 96-well plates, placing a single embryo and 200 μL of E3 medium per well.
(§4) For this experiment, in total 72 embryos were required per sample in order to run three independent experiments in three different plates, and each compound was evaluated three times in the same plate, allowing the evaluation of four samples per plate. […] Each embryo was examined under a dissecting microscope and the statistical analysis was made using Regression Probit analysis with SPSS for windows version 19.0. Data are expressed as the standard error of the mean (SEM) of three different experiments in triplicate.

Data set [2] concerns zebrafish embryos. The experiment in a line: in vivo. Particulars: toxicity scale class from zebrafish LC50 in mg/L.
Excerpt: as §1, §2, §3, §4

Setting [3] is: LC50, zebrafish embryos, Figure 5 toxicity scale.
Where [4] appears, read: Zebrafish LC50, zebrafish embryos, 96 hpf, 72 h exposure, mean ± SEM.

Structures are written as SMILES. Values joined by “and” are separate entries in the source; they are usually repeats but may differ in a detail not shown here. Identical values can stand only once.

Regarding `CCc1cc2c3c(c1)C(c1ccccc1)CC(=O)N3Cc1ccccc1-2` (stereo not shown) [4f], the LC50 in data set [1] (setting [3]) was 67.8 µM; in data set [1] (setting [4]), 67.8 µM and 60.2 µg/mL. For the same molecule, the “Aquatic Animal Acute Toxicity” value in data set [2] is given as “ST (slightly toxic 10–100 (ST))”.

Regarding `CCc1ccc2c(c1)C(c1ccccc1)CC(=O)N2Cc1ccccc1Br` (stereo not shown) [6f], the LC50 in data set [1] (setting [4]) was 151 µM and 86.5 µg/mL. Further, the “Aquatic Animal Acute Toxicity” value in data set [2] is “ST (slightly toxic 10–100 (ST))”.

Regarding `CCc1ccc(N(Cc2ccccc2Br)C(=O)/C=C/c2ccccc2)cc1` [7f], the LC50 in data set [1] (setting [3]) was 137 µM; in data set [1] (setting [4]), 137 µM and 51.2 µg/mL. Further, in data set [2], the “Aquatic Animal Acute Toxicity” value is “ST (slightly toxic 10–100 (ST))”.

Regarding `CCc1ccc(NC(=O)/C=C/c2ccccc2)cc1` [8f], in data set [1] (setting [4]), the median lethal concentration (LC50) is 221 µM and 43.9 µg/mL. Moreover, the “Aquatic Animal Acute Toxicity” value in data set [2] is “ST (slightly toxic 10–100 (ST))”.

Consider `COc1ccc(O)cc1C(C)(C)C` [BHA 18, butylated hydroxyanisole], for which the LC50 in data set [1] (setting [3]) was 90.2 µM; in data set [1] (setting [4]), 90.2 ± 1.15 µM. The “Aquatic Animal Acute Toxicity” value in data set [2] is listed as “ST (slightly toxic 10–100 (ST))”.

For the molecule `CC[C@@]1(O)C(=O)OCc2c1cc1n(c2=O)Cc2cc3ccccc3nc2-1` [Camptothecin 13, camptothecin], the median lethal concentration (LC50) at 72 h in data set [1] (setting [3]) amounted to 3.8 nM; in data set [1] (Zebrafish LC50, zebrafish embryos, 96 hpf, 72 h exposure, mean ± SEM, footnote c), 3.84 ± 0.21 nM. In addition, the “Aquatic Animal Acute Toxicity” value in data set [2] is on record as “T (super toxic 0–0.1 (T))”.

As for `C=CCc1ccc(O)c(OC)c1` [Eugenol 19, eugenol], the LC50 in data set [1] (setting [3]) is 114 µM; in data set [1] (setting [4]), 114 µM and 18.7 µg/mL. The “Aquatic Animal Acute Toxicity” value in data set [2] was “ST (slightly toxic 10–100 (ST))”.

In the case of `CC(C)Cn1cnc2c(N)nc3ccccc3c21` [Imiquimod 14, imiquimod], the LC50 at 72 h in data set [1] (setting [3]) was 351000 nM; in data set [1] (setting [4]), 351 µM and 84.3 µg/mL. For the same molecule, the “Aquatic Animal Acute Toxicity” value in data set [2] was “ST (slightly toxic 10–100 (ST))”.

Consider `CCCCCCCCCCC[C@@H](C[C@@H]1OC(=O)[C@H]1CCCCCC)OC(=O)[C@H](CC(C)C)NC=O` [Orlistat 15, orlistat], for which the median lethal concentration (LC50) in data set [1] (setting [3]) is 86 µM; in data set [1] (setting [4]) it was 87 µM and 43.1 µg/mL. Further, the “Aquatic Animal Acute Toxicity” value in data set [2] is recorded as “ST (slightly toxic 10–100 (ST))”.
